“And” between values parts separate entries of the source, which are not always exact repeats. Equal entries are not always repeated. “Also recorded” adds a separate entry of the source.
Experiments:
HDM2_25–117 = molecular target: T1, HDM2_25–117 (Homo sapiens, UniProt Q00987); assay: direct binding fluorescence polarization assay; settings: fluorescein labeled ligand at 10 nM, varying HDM2; read-out: Kd (HDM2/MDM2)
T1 construct: unnamed fusion partner ('fusion protein'); made in house; host or cells: E. coli BL21
Method: To measure the binding affinity of the functionalized spiroligomers to HDM2 we utilized a direct binding fluorescence polarization assay. The binding of the fluorescein labeled spiroligomers was measured at 10 nM spiroligomer in the presence of varying concentrations of HDM2_25–117 [31]. […] The initial screen of spiroligomers including 3–7 was carried out on the spiroligomer backbone containing all (S) stereochemistry to identify appropriate functional groups to mimic the side chains of Phe19, Trp23 and Leu26 of the p53 helix.
HDM2 Protein Expression. A fusion protein consisting of residues 1-140 (the plasmid was a generous gift from the lab of Neil Zondlo, University of Delaware) was prepared by over-expression.4 Plasmids were used to transform chemically competent E-coli BL21 Cells (Novagen), and a single colony was used to inoculate 2×4 mL LB media culture tubes containing 0.1 mg/mL ampicillin, at 37 °C overnight. These overnight cultures were used to inoculate a 1 L culture of TB media containing 0.1 mg/ml ampicillin. The culture was incubated at 37 °C with shaking at 250 rpm until the optical density at 600 nm reached to 0.9 absorbance units. Protein overexpression was then induced by the addition of 20% isopropyl β-D-thiogalactoside (IPTG) to 0.4 mM final concentration. The culture was then grown for additional 5 hours at 30 °C. Then cells were harvested at 4 °C by centrifugation at 4500 rpm for 20 min.
The cell pellet was resuspended in chilled 1x Binding Buffer (0.5 M NaCl, 20 mMTris-Hcl, 5 mM imidazole, pH 7.9), frozen and stored at -80 °C until protein purification.
Protein Purification. The frozen cell pellet was thawed at 4 °C and lysed by sonication for 2 minutes with 10 sec on and 20 sec off. Cell debris was pelleted by centrifugation for 30 min at 15000 g, 4 °C and the supernatant was filtered through a 0.2 μm syringe filter. A column was prepared using 2 mL Novagen His-Bind suspended resin and resin was washed with 3 volumes DI water. The flow rate maintained was not more than 0.5 ml/min throughout the purification.
The resin was charged with 5 vol 1x Charge Buffer (50 mM NiSO4) and then equilibrated with 3 vol 1x Binding Buffer (5 mM imidazole). After loading the column with prepared extract, the resin was washed with 10 vol 1x Binding Buffer and then with 6 vol 1x Wash Buffer (10 mM imidazole). Protein was then eluted with 6 vol 1x Elution Buffer (1 M imidazole). The eluate was captured in fractions of 0.5 ml. Fractions were assayed with Coomasie blue and desired fractions were combined and dialyzed using spectra/por 6 Dialysis Membranes of 10,000 MWCO (Spectrum Laboratories) in PBS (pH 7.4, 5 mM EDTA and 0.5 mM DTT) for overnight.
The resulting protein was characterized by SDS-PAGE (4-20% gradient gel) for purity analysis and concentrations were measured by UV analysis.
Fresh protein was used immediately for protein binding experiments. […]
Direct Binding Fluorescence Polarization Experiments. Fluorescence polarization experiments were undertaken to assess the ability of spiroligomers to bind HDM2, a protein with hydrophobic cleft that binds the p53 N-terminal helical domain. Fluoresceinated oligomers (conc. of 10 nM) were incubated for 30 minutes at room temperature with sequential dilutions of […]

[1] = system: HDM2, p53Y220C and p21 in Huh7 cells; assay: Western blot analysis of HDM2, p53 and p21; type: cell-based, human
Method: Huh7 cells were incubated with spiroligomer 1 and Nutlin-3 in media at 2, 5, 10 and 20 µM for 17 hours at 37°C. […] Huh7 cells were then incubated with 1 at 15 µM and cells were harvested at 2, 4, 6, 8, 12 and 24 hours. […]
Cell Culture and Treatment. HepG2 (expressing wild-type p53) and Huh7 (expressing mutant p53) cell lines were purchased from the American Type Culture Collection (ATCC) and cultured as monolayers in Dulbecco’s modified Eagle’s medium (DMEM) (Invitrogen) supplemented with 100 mM nonessential amino acid solution, 100 mM sodium pyruvate, 100 U/mL penicillin, 100 μg/mL streptomycin, and 10% heat inactivated fetal bovine serum (FBS) (all from Hyclone).
Cells were maintained at 37° C and 5% CO2 and were treated with media that contained 0.5%
FBS. Nutlin-3 (Sigma) was dissolved in 0.01% DMSO (Sigma).
Both nutlin-3 and spiroligomers were added into the medium for final concentrations of 2 µM, 5 µM, 10 µM and 20 µM for 24 hours. For the western blot experiments detailed below, the time length for incubation with bis-peptide was 17 hours. […]
Western Blotting. For protein extraction, cells were lysed in cell lysis buffer (Cell Signaling) with a protease inhibitor cocktail for 20 minutes on ice. Protein extracts (50 μg) were separated by SDS-PAGE electrophoresis, transferred to nitrocellulose membranes (Schleicher & Schuell), and incubated overnight with primary antibodies to p53, HDM2, p21, and β-actin (all from Santa Cruz Biotechnology). The blots were developed using ECL plus detection system (Amersham Biosciences) and exposed to Kodak imaging films (Kodak BioMax). Images were quantified using ImageJ software (NIH).
Figure S.5. Detection of bis-peptide 1 and Nutlin-3 in HepG2 (left) and Huh7 (right) cells. The concentration of each compound is given in μM and the three proteins (HDM2, p53 and p21) bands are […]

HDM2 [2] = molecular target: T2, HDM2 (Homo sapiens, UniProt Q00987); assay: competition fluorescence polarization experiment (displacement of Flp4 peptide); type: binding; settings: hDM2 0.4 μM, Flp4 10 nM, three independent trials
T2 construct: A fusion protein consisting of residues 1-140; unnamed fusion partner ('fusion protein'); made in house; host or cells: E. coli BL21
Method: Competition Fluorescence Polarization Experiments. To assess the ability of oligomer 2 to […]
competition experiments were undertaken. hDM2 (0.4 μM) and Flp4 control peptide (10 nM) were incubated at room temperature for 30 minutes in binding buffer, followed by the addition of serial dilutions of oligomer 2 (final conc. 400 μM to 0.194 μM). The binding experiments were incubated for a further 30 minute time period, followed by recording of the polarization data. See […]
Bis- Pept ide ( nM ) Po lar A ( mP)
Table S.6. Table of raw values used for the plot of the competition binding experiment; X values are oligomer 2 concentration (in nM) and Y values are polarization (in millipolarization units); data from three independent trials is shown.

HDM2 [3] = molecular target: T2, HDM2; assay: as above; type: binding; settings: Flp4 at 10 nM with 2 µM HDM2, series of concentrations of spiroligomer; read-out: Ki against Flp4 peptide

T1 sequence (Q00987 25-117): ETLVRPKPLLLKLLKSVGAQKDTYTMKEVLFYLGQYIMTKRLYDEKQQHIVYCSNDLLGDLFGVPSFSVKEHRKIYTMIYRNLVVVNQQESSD
T2 sequence (Q00987 1-140): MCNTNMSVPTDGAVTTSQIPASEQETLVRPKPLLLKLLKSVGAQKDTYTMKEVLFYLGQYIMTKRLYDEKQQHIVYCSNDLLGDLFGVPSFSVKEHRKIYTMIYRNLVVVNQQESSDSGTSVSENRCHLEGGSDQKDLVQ

CC(C)CN1C(=O)[C@@H]2C[C@@]3(CN2C(=O)[C@@]12C[C@H]1C(=O)N(Cc4ccc(Cl)c(Cl)c4)[C@]4(C[C@@H]5C(=O)N[C@@H](CCc6ccccc6)C(=O)N5C4)C(=O)N1C2)NC(=O)[C@H](CCCCNC(=S)Nc1ccc2c(c1)C(=O)OC21c2ccc(O)cc2Oc2cc(O)ccc21)NC3=O [Compound 9] gave a Kd (HDM2_25–117) of 6.7 µM.

CC(C)CN1C(=O)[C@@H]2C[C@@]3(CN2C(=O)[C@@]12C[C@H]1C(=O)N(Cc4ccc(Cl)c(Cl)c4)[C@@]4(C[C@H]5C(=O)N[C@H](CCc6ccccc6)C(=O)N5C4)C(=O)N1C2)NC(=O)[C@H](CCCCNC(=S)Nc1ccc2c(c1)C(=O)OC21c2ccc(O)cc2Oc2cc(O)ccc21)NC3=O [Compound 8] was tested, and the Kd (HDM2_25–117) was 23 µM.

CC(C)CN1C(=O)[C@@H]2C[C@@]3(CN2C(=O)[C@@]12C[C@H]1C(=O)N(Cc4ccc(Cl)c(Cl)c4)[C@]4(C[C@H]5C(=O)N[C@@H](CCc6ccccc6)C(=O)N5C4)C(=O)N1C2)NC(=O)[C@@H](CCCCNC(=S)Nc1ccc2c(c1)C(=O)OC21c2ccc(O)cc2Oc2cc(O)ccc21)NC3=O [Compound 12] showed a Kd (HDM2_25–117) of 1.6 µM.

With COc1ccc(C2=N[C@@H](c3ccc(Cl)cc3)[C@@H](c3ccc(Cl)cc3)N2C(=O)N2CCNC(=O)C2)c(OC(C)C)c1 [Nutlin-3] the “HDM2 levels relative to control cells” value [1] was “not seen; also recorded: very weak stabilization effect on HDM2”, the “HDM2 levels with time” value [1] was “only very small changes; also recorded: very little effect on HDM2” and the p53Y220C levels [1] was “No visible effect”. The “p53Y220C levels with time” value [1] was “no observable effect on p53Y220C levels”.

CC(C)CN1C(=O)C2CC3(CN2C(=O)C12CC1C(=O)N(Cc4ccc(Cl)c(Cl)c4)C4(CC5C(=O)NC(CCc6ccccc6)C(=O)N5C4)C(=O)N1C2)NC(=O)C(CCC(=O)O)NC3=O (stereo not drawn) [Compound 2] was tested, and the “polarization of Flp4 in competition” value (HDM2 [2]; oligomer 194.8242 nM) was 115. 56 mP and 119. 19 mP and 107. 52 mP, the “polarization of Flp4 in competition” value (HDM2 [2]; oligomer 389.6484 nM) was 109. 71 mP and 120. 5 mP and 117. 89 mP and the “polarization of Flp4 in competition” value (HDM2 [2]; oligomer 779.2969 nM) was 107. 07 mP and 119. 05 mP and 110. 95 mP. The “polarization of Flp4 in competition” value (HDM2 [2]; oligomer 1558.594 nM) was 102. 29 mP and 112. 93 mP and 113. 76 mP, the “polarization of Flp4 in competition” value (HDM2 [2]; oligomer 3117.188 nM) was 103. 88 mP and 103. 29 mP and 109. 28 mP and the “polarization of Flp4 in competition” value (HDM2 [2]; oligomer 6234.375 nM) was 97.23 mP and 94.66 mP and 93.84 mP. For the same compound, the “polarization of Flp4 in competition” value (HDM2 [2]; oligomer 12468.75 nM) was 91.7 mP and 86.62 mP and 91.97 mP, the “polarization of Flp4 in competition” value (HDM2 [2]; oligomer 24937.5 nM) was 88.82 mP and 82 mP and 88.53 mP and the “polarization of Flp4 in competition” value (HDM2 [2]; oligomer 49875 nM) was 86.21 mP and 84.81 mP and 86.83 mP. The “polarization of Flp4 in competition” value (HDM2 [2]; oligomer 99750 nM) was 78.06 mP and 93.73 mP and 94.13 mP, the “polarization of Flp4 in competition” value (HDM2 [2]; oligomer 199500 nM) was 84.38 mP and 85.9 mP and 80.84 mP and the “polarization of Flp4 in competition” value (HDM2 [2]; oligomer 399000 nM) was 75.41 mP and 67.78 mP and 78.26 mP. It also gave a Ki (HDM2 [3]) of 5 µM.

Compound CC(C)CN1C(=O)[C@@H]2C[C@@]3(CN2C(=O)[C@@]12C[C@H]1C(=O)N(Cc4cccc5ccccc45)[C@]4(C[C@H]5C(=O)N[C@@H](Cc6ccccc6)C(=O)N5C4)C(=O)N1C2)NC(=O)[C@H](CCCCNC(=S)Nc1ccc2c(c1)C(=O)OC21c2ccc(O)cc2Oc2cc(O)ccc21)NC3=O [Compound S10] has a Kd (HDM2_25–117) of 16 µM.

CC(C)CN1C(=O)[C@@H]2C[C@@]3(CN2C(=O)[C@@]12C[C@H]1C(=O)N(Cc4ccc(Cl)c(Cl)c4)[C@@]4(C[C@@H]5C(=O)N[C@H](CCc6ccccc6)C(=O)N5C4)C(=O)N1C2)NC(=O)[C@@H](CCCCNC(=S)Nc1ccc2c(c1)C(=O)OC21c2ccc(O)cc2Oc2cc(O)ccc21)NC3=O [Compound 10] gave a Kd (HDM2_25–117) of 4.8 µM.

With CC(C)CN1C(=O)[C@@H]2C[C@@]3(CN2C(=O)[C@@]12C[C@H]1C(=O)N(Cc4ccc(Cl)c(Cl)c4)[C@@]4(C[C@H]5C(=O)N[C@H](CCc6ccccc6)C(=O)N5C4)C(=O)N1C2)NC(=O)[C@@H](CCCCNC(=S)Nc1ccc2c(c1)C(=O)OC21c2ccc(O)cc2Oc2cc(O)ccc21)NC3=O [Compound 11] the Kd (HDM2_25–117) was 4.6 µM.

Compound CC(C)CCN1C(=O)[C@@H]2C[C@@]3(CN2C(=O)[C@@]12C[C@H]1C(=O)N(Cc4ccc(Cl)c(Cl)c4)[C@]4(C[C@H]5C(=O)N[C@@H](Cc6ccccc6)C(=O)N5C4)C(=O)N1C2)NC(=O)[C@H](CCCCNC(=S)Nc1ccc2c(c1)C(=O)OC21c2ccc(O)cc2Oc2cc(O)ccc21)NC3=O [Compound 5] has a Kd (HDM2_25–117) of 6.3 µM.
